Measurements: PubChem BioAssay AID1996
Values after ≈ are worked out from the molar mass of the structure shown.

Conditions: buffer; pH 7.4; 200.0 µM

| SMILES | solubility kinetic |
| --- | --- |
| O=C(COC(=O)/C=C/c1ccc(Cl)cc1)NC1CC1 | 7.1 µg/mL (≈ 25.4 µM) |
| Cc1ccc2[nH]c(=O)c3cc(C(=O)NCC4CCCO4)sc3c2c1 (centres undefined) | 1 µg/mL (≈ 2.92 µM) |
| COc1cc(NC(=O)CCCn2c(=O)oc3ccccc32)cc(OC)c1 | 24.2 µg/mL (≈ 67.9 µM) |
| O=C(COC(=O)COc1cccc(F)c1)NCC1CCCCC1 | > 48.5 µg/mL |
| Cc1ccc(S(=O)(=O)N2CCOCC2)cc1NC(=O)CNC(C)c1ccccc1.O=C(O)C(=O)O (centres undefined) | 74.1 µg/mL |
| CC(Oc1ccc(Cl)cc1Cl)/C(N)=N/O (centres undefined) | 30.2 µg/mL (≈ 121 µM) |
| Cc1cc(/C=C2/NC(=O)NC2=O)c(C)n1-c1ccc(C#N)cc1 | 8.4 µg/mL (≈ 27.4 µM) |
| CCOc1ccc(NC(=O)CN2C(=O)CSC(C)C2=O)cc1 (centres undefined) | > 48.4 µg/mL |
| Cc1cc(/C=C(\C#N)C(=O)NCc2ccco2)c(C)n1-c1cccnc1 | 10.7 µg/mL (≈ 30.9 µM) |
| OC(C#CCN1CCCCC1)(c1ccccc1)c1ccccc1 | 13 µg/mL (≈ 42.6 µM) |
| O=C(CCCn1c(=O)oc2ccccc21)Nc1ccccc1 | 42.2 µg/mL (≈ 142 µM) |
| COc1cccc(NC(=O)COC(=O)CNC(=O)C2CCCCC2)c1 | > 52.3 µg/mL |
| O=C(NCCNC(=O)c1ccc(F)cc1)c1ccc(F)cc1 | 12.9 µg/mL (≈ 42.4 µM) |
| CC(=O)Nc1ccc(C=C(C(C)=O)C(C)=O)cc1 | > 36.8 µg/mL |
| CC(C)Oc1ncnc2c1[nH]c1ccccc12 | 12.5 µg/mL (≈ 55 µM) |
| COc1ccc(C)cc1NC(=O)C1CCCCN1S(=O)(=O)c1ccccc1 (centres undefined) | 12 µg/mL (≈ 30.9 µM) |
| CN(CC(O)Cn1cnc2c1c(=O)n(C)c(=O)n2C)c1ccccc1 (centres undefined) | > 51.5 µg/mL |
| CCOc1ccc(S(=O)(=O)N2CCN(c3ccccn3)CC2)cc1 | 1.6 µg/mL (≈ 4.61 µM) |
| Cc1nccn1CCOc1ccc(Cl)cc1.O=C(O)C(=O)O | 45 µg/mL |
| Cc1cc2c(cc1S(=O)(=O)N(C)c1ccccc1)NC(=O)CO2 | 3.3 µg/mL (≈ 9.93 µM) |
| Cn1c(=O)oc2cc(S(=O)(=O)NC3CCCCC3)ccc21 | > 46.6 µg/mL |
| Cc1ccc(C)c(N2C(=O)CC(Cc3ccc(Cl)cc3)C2=O)c1 (centres undefined) | 17.6 µg/mL (≈ 53.7 µM) |
| O=C(O)Cc1ccc(NC(=O)Cc2ccc3ccccc3c2)cc1 | 3.7 µg/mL (≈ 11.6 µM) |
| O=[N+]([O-])c1ccc(NCCCN2CCOCC2)nc1 | > 39.9 µg/mL |

| SMILES | solubility kinetic |
| --- | --- |
| Cc1cccc(/C(N)=N/OC(=O)c2cccc3ccccc23)c1 | 1.1 µg/mL (≈ 3.61 µM) |
| O=S(=O)(Nc1nccs1)c1ccc(F)cc1 | > 38.7 µg/mL |
| O=C1NC(=O)N(c2ccc(F)cc2)C(=O)/C1=C/c1ccsc1 | > 47.4 µg/mL |
| N#CC1=C(N)Oc2c(c(=O)sc3ccccc23)C1c1ccncc1 (centres undefined) | 3.6 µg/mL (≈ 10.8 µM) |
| O=C(Cn1cc([N+](=O)[O-])ccc1=O)Nc1ccc2c(c1)OCO2 | 15.8 µg/mL (≈ 49.8 µM) |
| CC(=O)ONC(=Nc1ccccc1)c1nonc1N | > 39.2 µg/mL |
| Cc1ccc(NC(=O)CCc2nc3ccccc3[nH]2)cc1C | 0.3 µg/mL (≈ 1.02 µM) |
| Cc1ccc(NC(=O)C2=C(C(=O)O)CCCC2)cc1F | 26.9 µg/mL (≈ 97 µM) |
| CC(C)CCOc1ccc(C2(C)NC(=O)NC2=O)cc1 (centres undefined) | 38.5 µg/mL (≈ 139 µM) |
| CCOC(=O)/C(C#N)=C/c1cccc(F)c1 | 28.6 µg/mL (≈ 130 µM) |
| Cc1ccc(NC(=O)CCc2ccc(C)o2)cc1 | 21.1 µg/mL (≈ 86.7 µM) |
| COc1ccccc1NC(=O)c1ccccc1NC(=O)c1ccccc1C(=O)O | > 58.6 µg/mL |
| CN1C2CCC1CC(NC(=O)c1ccc([N+](=O)[O-])cc1)C2 (centres undefined) | > 43.4 µg/mL |
| CCNC(=O)c1ccc(C23CC4CC(CC(C4)C2)C3)o1 | < 0.6 µg/mL |
| CCN(CC(=O)NCc1cccs1)C(=O)c1ccc(-c2ccc(F)cc2)o1 | 51.8 µg/mL (≈ 134 µM) |
| CC1=C(C(=O)OC(C)(C)C)C(c2cccc3ccccc23)NC(=O)N1 (centres undefined) | < 0.4 µg/mL |
| COCCNC(=O)Cn1cc(C=C2C(=O)NC(=O)NC2=O)c2ccccc21 | 6.3 µg/mL (≈ 17 µM) |
| Cc1noc(C(=O)NCC2CCCO2)c1Cl (centres undefined) | > 36.7 µg/mL |
| CC(O)c1cccc(NC(=O)C2CCCCC2)c1 (centres undefined) | 25.6 µg/mL (≈ 104 µM) |
| CCOC(=O)NC(=O)CSc1ccc2ccccc2n1 | 42.5 µg/mL (≈ 146 µM) |
| Nc1ccc(C(=O)Nc2cccc3ncccc23)cc1 | 37.3 µg/mL (≈ 142 µM) |
| O=C(COc1ccc(Cl)cc1)NCCCNC(=O)c1cnccn1 | > 52.3 µg/mL |
| S=C(NC1CCCCC1)N1CCn2cccc2C1c1cccnc1 (centres undefined) | > 51.1 µg/mL |
| O=C(Nc1cccc(C(=O)NC2CCCC2)c1)c1ccccc1 | 21.1 µg/mL (≈ 68.4 µM) |

| SMILES | solubility kinetic |
| --- | --- |
| COc1ccc(C(=O)c2sc(Nc3ccccc3)nc2C)cc1 | 3.4 µg/mL (≈ 10.5 µM) |
| COc1ccc(C(=O)OCC(=O)NCc2ccc3c(c2)OCO3)cc1S(=O)(=O)N1CCOCC1 | 12.2 µg/mL (≈ 24.8 µM) |
| CCc1cc(C(=O)c2ccc(OC)cc2)c(N)s1 | 20.9 µg/mL (≈ 80 µM) |
| Cc1ccc2nc(SCC(=O)c3ccc(O)cc3O)[nH]c2c1 | 6.4 µg/mL (≈ 20.4 µM) |
| CC1CCN(C(=O)C(C)Cl)CC1 (centres undefined) | 11.1 µg/mL (≈ 58.5 µM) |
| Cn1c(=O)c2c(nc(NC3CCCC3)n2C)n(C)c1=O | > 41.6 µg/mL |
| COC(=O)/C=C1\NCCNC1=O | > 25.5 µg/mL |
| CCCOc1ccc(/C=C2/C(=O)ON=C2C)cc1OCC | 36.8 µg/mL (≈ 127 µM) |
| CN1CCN(c2nc(Cl)ncc2F)CC1 | > 34.6 µg/mL |
| O=C(NCc1cccnc1)Nc1ccc(Cl)cc1Cl | > 44.4 µg/mL |
| O=C(COC(=O)c1cccs1)Nc1cccc(S(=O)(=O)N2CCCCC2)c1 | 9.6 µg/mL (≈ 23.5 µM) |
| CCN1CCN(C(=O)c2cc(=O)c3cc(C)ccc3o2)CC1 | > 45.1 µg/mL |
| CCC(C)c1ccc(NC(=O)NCCN2CCCCC2)cc1 (centres undefined) | 40.3 µg/mL (≈ 133 µM) |
| COc1ccc(NC2=C(NC(C)=O)C(=O)c3ccccc3C2=O)cc1 | 49.5 µg/mL (≈ 147 µM) |
| c1ccc2c(c1)Sc1ccccc1N2CC1CN2CCC1CC2 (centres undefined) | > 48.4 µg/mL |
| O=C(O)c1ccc(CSc2nc3ccccc3[nH]2)cc1 | 39.2 µg/mL (≈ 138 µM) |
| CCOc1ncccc1C(=O)N(CC)CC(=O)NCc1ccc(F)cc1 | > 53.9 µg/mL |
| CC(C)(C)n1cnc2cc(NC(=O)c3cccs3)ccc21 | > 44.9 µg/mL |
| Cc1cc(NC(=O)CS(=O)(=O)c2c[nH]c3ccccc23)no1 | > 47.9 µg/mL |
| Nc1ccc(N2CCOCC2)cc1C(F)(F)F | 33.9 µg/mL (≈ 138 µM) |
| Cn1c(N)c(C(=O)COC(=O)/C=C/c2ccccc2F)c(=O)n(C)c1=O | 5.5 µg/mL (≈ 15.2 µM) |
| C=CCOc1ccc(C2NC(=S)NC3=C2CCc2ccccc23)cc1 (centres undefined) | 11.2 µg/mL (≈ 32.1 µM) |
| O=C(O)c1ccccc1Nc1ccc(OC(F)F)cc1 | > 41.9 µg/mL |
| CC(C(=O)NCC1CCCCC1)N(C)Cc1cccc(Cl)c1 (centres undefined) | 22.8 µg/mL (≈ 70.6 µM) |

| SMILES | solubility kinetic |
| --- | --- |
| O=C1CSC2(N1)C1CC3CC(C1)CC2C3 (centres undefined) | 12.5 µg/mL (≈ 56 µM) |
| CN(C)/C=C/C(=O)c1ccc(Oc2ncccn2)cc1 | > 40.4 µg/mL |
| O=C(COC(=O)c1cc(Cl)nc(Cl)c1)NCc1ccc2c(c1)OCO2 | 12.1 µg/mL (≈ 31.6 µM) |
| O=C(O)CN1C(=O)NC2(CCc3ccccc32)C1=O (centres undefined) | > 39 µg/mL |
| Cc1cc2c(OCC(O)CNCc3ccco3)cccc2[nH]1 (centres undefined) | 43.4 µg/mL (≈ 144 µM) |
| Cc1nc2ccc(C(=O)O)cc2c2c1CC(CN)O2 (centres undefined) | 19.7 µg/mL (≈ 76.3 µM) |
| Cc1ccc(NC(=O)CCn2cc(C(F)(F)F)ccc2=O)cc1 | 45.5 µg/mL (≈ 140 µM) |
| O=Nc1[nH]c(=O)c(/C=C(\O)c2ccccc2)nc1NO | 33.8 µg/mL (≈ 123 µM) |
| CN1CCN(C(=O)c2cc(Br)cn2C)CC1 | > 42.9 µg/mL |
| C=CCN1CCN(C(=O)c2cc3c(s2)CCCC3)CC1 | > 43.6 µg/mL |
| CC1CC(C)(C)NC(=S)N1CCC(=O)N1CCc2ccccc21 (centres undefined) | 14.6 µg/mL (≈ 44 µM) |
| COc1ccccc1N1CCN(C(=S)Nc2ccc(F)cc2)CC1 | 4 µg/mL (≈ 11.6 µM) |
| COc1ccc(OC)c(NC(=O)COC(=O)Cc2ccsc2)c1 | 36.2 µg/mL (≈ 108 µM) |
| O=C(C[n+]1cc[nH]c1)c1ccc(Cl)cc1.[Cl-] | > 38.6 µg/mL |
| CCc1nc(-c2ccccc2)c2ccccn12.O=C(O)C(=O)O | 38.1 µg/mL |
| CCC(CC)C(=O)OCC(=O)Nc1cccc([N+](=O)[O-])c1 | 43 µg/mL (≈ 146 µM) |
| O=c1c2ccccc2cnn1Cc1n[nH]c(=S)n1-c1ccccc1F | > 53 µg/mL |
| Cc1ccc(SCC(=O)c2c(C)nc3ccccn23)cc1 | 2.6 µg/mL (≈ 8.77 µM) |
| O=c1cc(CN2CCOCC2)c2cc(Cl)c(O)cc2o1 | > 44.4 µg/mL |
| CCOC(=O)CCNC(=O)N1CCCC(CNS(=O)(=O)c2cccs2)C1 (centres undefined) | > 60.5 µg/mL |
| COc1ccc(NC(=O)C2C(c3ccccc3)C2(Cl)Cl)cc1 (centres undefined) | < 0.7 µg/mL |
| CCOc1ccccc1-n1c(C)cc(C=O)c1C | > 36.5 µg/mL |
| O=C(CSC1=NCCS1)c1ccc(Cl)cc1 | 31.2 µg/mL (≈ 115 µM) |
| O=[N+]([O-])c1ccc(-c2nc(-c3ccncc3)no2)cc1 | 1.3 µg/mL (≈ 4.85 µM) |

| SMILES | solubility kinetic |
| --- | --- |
| C=CCON/C(CCC)=C1\C(=O)CC(C)(C)CC1=NC | 34.9 µg/mL (≈ 125 µM) |
| CC(C)CC(=O)Nc1ccc2ccccc2c1 | 6.2 µg/mL (≈ 27.3 µM) |
| O=C(CSc1ccc(F)cc1)NC12CC3CC(CC(C3)C1)C2 | 1.1 µg/mL (≈ 3.44 µM) |
| C#Cc1ccc(C(=O)NCc2ccc(N3CCCC3=O)cc2)cc1 | 14.6 µg/mL (≈ 45.9 µM) |
| O=C(Nc1ccc(Cl)c([N+](=O)[O-])c1)c1ccc2c(c1)OCCO2 | < 0.4 µg/mL |
| COc1ccc(C(CNC(=O)c2cccc(S(=O)(=O)N3CCOCC3)c2)N2CCOCC2)cc1 (centres undefined) | > 73.4 µg/mL |
| COCc1cc(C)nc(SCc2ccc(Br)cc2)c1C#N | < 0.4 µg/mL |
| Cn1c(N)c(C(=O)COC(=O)C2CCCN2C(=O)c2cccs2)c(=O)n(C)c1=O (centres undefined) | 56.8 µg/mL (≈ 135 µM) |
| O=C(CN1CCN(c2ccccc2)CC1)c1c[nH]c2ccccc12 | 4.4 µg/mL (≈ 13.8 µM) |
| Cc1cccc(NC(=S)N2CCCC2)c1 | > 33 µg/mL |
| CCOc1ccc(NC(=S)Nc2ccc(F)cc2)cc1 | 8.3 µg/mL (≈ 28.6 µM) |
| CN(c1cccc(NS(=O)(=O)c2ccccc2)c1)S(C)(=O)=O | > 51.1 µg/mL |
| COC(=O)c1ccc(-n2c(C)cc(C(=O)COC(=O)C3=COCCO3)c2C)cc1 | 3.7 µg/mL (≈ 9.26 µM) |
| CSc1ncccc1C(=O)OCC(=O)c1ccccc1 | 1 µg/mL (≈ 3.48 µM) |
| COC(=O)c1cc(OCC(=O)Nc2ccc3c(c2)CCC3)cc(C(=O)OC)c1 | 3 µg/mL (≈ 7.82 µM) |
| COc1ccc(CNC(=O)COC(=O)C2CC2C)cc1OC (centres undefined) | > 46.1 µg/mL |
| O=[N+]([O-])c1ccc(Oc2cccc(C(F)(F)F)c2)nc1 | 3.5 µg/mL (≈ 12.3 µM) |
| COC(=O)c1c(C)oc(C)c1S(=O)(=O)N1CCOCC1 | 40.9 µg/mL (≈ 135 µM) |
| O=S(=O)(Nc1ccc(Cl)cn1)c1ccc(F)cc1 | > 43 µg/mL |
| O=C(CN1C(=O)NC2(CCCC2)C1=O)NCCc1ccc(F)cc1 | 44.4 µg/mL (≈ 133 µM) |
| Cc1c(C(=O)c2ccc(Br)cc2)c(=O)n(C)c(=O)n1C | 50.1 µg/mL (≈ 149 µM) |
| Cc1cc(C)cc(NC(=O)c2cc(C)n(Cc3cccs3)c2C)c1 | 2.3 µg/mL (≈ 6.8 µM) |
| CC(=O)Nc1ccc(NC(=O)COC(=O)C2CCCCC2)cc1 | > 47.8 µg/mL |
